Test system: YAP
Test: Nuclear YAP in endothelial cells attached to collagen peptides
Format: cell-based, human
Method: Whole cell and CAM tissue lysates were collected in RIPA buffer supplemented with 1× protease inhibitor and 1× phosphatase inhibitor and were run on polyacrylamide gels using denaturing conditions. Prior to loading the gels, 6× sample buffer was added to each of the lysates (final concentration 1×) and boiled for five minutes. Twenty to 50 μg of total protein were loaded into each lane. […] Gels were run at 60 volts (v) until the dye front passed through the stacking gel, and then the voltage was increased to 100V for the remainder of the separation. Precision Plus protein standards (Bio-Rad) were used to visualize migration. Protein was transferred to nitrocellulose membranes using a wet tank system and blocked for 1 h using 10% non-fat dried milk in tris-buffered saline with 0.01% Tween-20 (TBS-T). […] Membranes were washed 3 times in TBS-T for five minutes. Blots were then incubated with HRP conjugated secondary antibodies (1:15000) in 1% non-fat milk in TBS-T for 1 h. Membranes were washed a second time as indicated above and exposed to chemiluminecent substrate for three minutes prior to exposure to autoradiography film in a dark room. Western blot bands were quantified using Image J software based on pixel intensity.

## CQGPRGDKGEC [Mab P-2]
By 15 minutes, FIG. 8A
  nuclear localized YAP (staining) as compared to P-1: enhanced level of nuclear localized YAP
Cells attached to peptide, FIG. 8B
  increase of nuclear YAP as compared to P-1 (Western blot): approximately 2 fold

Source: US10906977B2, “Enhancing the therapeutic activity of immune checkpoint inhibitor” (Maine Medical Center Research Institute, priority 2016, dated 2021)
